Data set [1] concerns bile ducts formed from rCLiPs only. Nature of the data set: CLF added to rCLiP bile ducts only, without primary hepatocytes (negative control, Example 1). The conditions noted are these: no hepatocytes, 2 hours after CLF addition, FIG. 3B. Type of data set: in vitro ADME, rat. On the procedure: The appearance 2 hours after the addition of the CLF solution was observed through the phase-contrast microscope and the fluorescence microscope (FIG. 3B).

The test system is the same in data set [2]. Nature of the data set: CLF incubation of rCLiP bile ducts only, without human hepatocytes (negative control, Example 2). The format is in vitro ADME, rat. The conditions noted are these: no human hepatocytes, 30 min incubation in HBSS containing CLF, observed immediately, 4 and 24 hours after washing, FIG. 6B. On the procedure:
After the incubation, the cells were washed with MSS not containing CLF, and the appearances of the cells immediately, 4 hours, and 24 hours after the washing were observed through a phase-contrast microscope and a fluorescence microscope (FIG. 6B).

Data set [3] deals with bile ducts formed from the rCLiPs cocultured with rat primary hepatocytes. As to the kind of experiment: CLF transfer to bile ducts in coculture of rCLiP bile ducts and rat primary hepatocytes. Type of data set: in vitro ADME. The conditions noted are these: rat primary hepatocytes cocultured 3 days; observed 2, 24 and 72 hours after CLF addition; excitation 480 nm; FIG. 3A. An excerpt:
(§1) It can be confirmed by various methods using labeled compounds that the glandular cavities and the ducts are functionally connected in the cultured tissue produced by the above-mentioned method. For example, a compound obtaining by labeling a compound the behavior of which in the glandular cavities and the ducts is known and which are objects to be confirmed can be used. The functional connection between the glandular cavities and the ducts can be specifically confirmed by confirming whether the labeled secretion or the analogue thereof is incorporated into the glandular cells, and the labeled secretion or the analogue thereof secreted from the glandular cells can be detected from the ducts. […] When CLF is incorporated into the hepatocytes cocultured with the bile ducts, and the fluorescence of CLF is detected from the bile ducts, it can be confirmed that CLF is secreted from the hepatocytes to the biliary canaliculi, and the secreted CLF moves to the bile ducts, namely that the biliary canaliculi and the bile ducts are functionally connected. […]
One day after the inoculation of the primary hepatocytes, the medium was exchanged for the BIM-2 medium. […] The appearances of the cells 2 hours, 24 hours, and 72 hours after the addition of the CLF solution were observed through a phase-contrast microscope and a fluorescence microscope (FIG. 3A). […]

For data set [4], the system named is bile ducts formed from the rCLiPs cocultured with human hepatocytes. Nature of the data set: CLF transfer to bile ducts in coculture of rCLiP bile ducts and human hepatocytes. The format is in vitro ADME. The conditions noted are these: human hepatocytes cocultured 3 days; 30 min incubation in HBSS containing CLF; observed immediately, 4 and 24 hours after washing; excitation 470 nm; FIG. 6A.
Description: as §1
One day after the inoculation of the human hepatocytes, the medium was exchanged for BIM-2 medium. […] After the incubation, the cells were washed with MSS not containing CLF, and the appearances of the cells immediately, 4 hours, and 24 hours after washing were observed through a phase-contrast microscope and a fluorescence microscope (FIG. 6A). […]

The structures appear in SMILES notation.

As to `CC(CCC(=O)NC(CCCCNC(=S)Nc1ccc(-c2c3ccc(=O)cc-3oc3cc(O)ccc23)c(C(=O)O)c1)C(=O)O)C1CCC2C3C(O)CC4CC(O)CCC4(C)C3CC(O)C12C` (stereo not shown) [CLF, cholyl-lysyl-fluorescein], the “CLF fluorescence in bile ducts” value is reported as “fluorescence was not, meanwhile, detected” in data set [1] and “fluorescence was not, meanwhile, detected” in data set [2]. The “CLF fluorescence in bile ducts (secretion to biliary canaliculi and movement to bile ducts)” value in data set [3] and in data set [4] was “fluorescence was detected from the bile ducts” each time.

The values are drawn from patent publication US20220135942A1, “CULTURED TISSUE AND METHOD FOR PRODUCING SAME” (NAGASAKI UNIVERSITY, priority 2019, published 2022).
